# Measured values published in ChEMBL document CHEMBL1201862, “PubChem BioAssay data set” (2004).
# Activity calls are given as the source filed them.
# Assays:
# [1] = Shn3 3'UTR reporter inhibitors, dose response, cell-based, Clone20 osteoblasts, firefly luciferase, cherry-picked (AID 624132); assay type: functional;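 also: firefly luciferase luminescence from reporter carrying the Shn3 3'UTR in osteoblasts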
# [2] = reduction of Shn3 3'UTR firefly luciferase signal, dose response, Schnurri-3 inhibitor project, cell-based, Clone20 osteoblasts, cherry-pick, set 2 (AID 720490); assay type: functional;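 also: actives lower the luminescence signal as inhibitors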
# [3] = control 3'UTR Renilla luciferase suppression, dose response, counter-screen for Shn3 inhibitor project, cell-based, Clone20-Shn3RL, cherry-picked (AID 624133); assay type: functional
# HeLa = test: HeLa cell cytotoxicity, dose response, cytotoxicity control, ATP luminescence, cherry-pick samples (AID 687004); assay type: functional, cell-based; details: Homo sapiens
# [4] = A Cell-Based Confirmatory Screen for Compounds that Inhibit VEEV, TC-83 (6).; assay type: functional
# [5] = A Cell-Based Confirmatory Screen for Compounds that Inhibit VEEV, TC-83 (8).; assay type: functional
# [6] = HepG2 cell cytotoxicity, dose response, cytotoxicity control, ATP luminescence, cherry-pick, activator set 2 (AID 1053143); assay type: functional, cell-based
# [7] = molecular target: T1, DNA repair protein RAD52 homolog (Homo sapiens, UniProt P43351); assay type: functional, biochemical
# T1 sequence (P43351 whole entry): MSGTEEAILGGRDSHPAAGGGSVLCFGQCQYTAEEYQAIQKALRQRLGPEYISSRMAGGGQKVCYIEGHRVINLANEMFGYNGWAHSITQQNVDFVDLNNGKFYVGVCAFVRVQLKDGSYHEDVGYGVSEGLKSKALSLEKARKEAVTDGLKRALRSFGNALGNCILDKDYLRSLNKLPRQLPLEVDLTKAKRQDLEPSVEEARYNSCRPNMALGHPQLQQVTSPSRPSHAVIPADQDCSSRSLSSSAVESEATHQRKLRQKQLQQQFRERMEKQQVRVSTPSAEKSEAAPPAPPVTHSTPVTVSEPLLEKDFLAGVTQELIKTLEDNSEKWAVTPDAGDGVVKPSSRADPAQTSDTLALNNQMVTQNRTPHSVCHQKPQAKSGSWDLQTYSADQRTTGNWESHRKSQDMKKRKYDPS
# [8] = LGR2 antagonists, dose response, cell-based, HEK293, CRE-luciferase reporter, cherry pick, set 2 (AID 743343); assay type: functional;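 also: transfected cells were stimulated with diluted bursicon conditioned medium after compound addition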
# Nonstructural protein 1 = Nonstructural protein 1 (Influenza A virus, UniProt Q194T2); assay type: functional, Influenza A virus (A/California/07/2009(H1N1))
# Chain of Nonstructural protein 1 (Q194T2 whole entry): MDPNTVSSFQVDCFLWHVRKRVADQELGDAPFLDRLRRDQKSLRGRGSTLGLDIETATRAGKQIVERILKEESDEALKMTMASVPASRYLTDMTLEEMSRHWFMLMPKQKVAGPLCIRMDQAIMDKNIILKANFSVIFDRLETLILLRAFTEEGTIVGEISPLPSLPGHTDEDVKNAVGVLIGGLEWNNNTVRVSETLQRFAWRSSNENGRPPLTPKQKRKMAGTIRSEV
# [9] = HepG2 cell cytotoxicity, dose response, cytotoxicity control, plate reader, cherry-pick, antagonist series (AID 743416); assay type: functional, cell-based
# Caspase-6 = molecular target: T2, Caspase-6 (Homo sapiens, UniProt P55212); test: human caspase-6 inhibitors, dose response, biochemical, VEID-R110 fluorescence, cherry-pick (AID 720632)
# T2 sequence (P55212 whole entry): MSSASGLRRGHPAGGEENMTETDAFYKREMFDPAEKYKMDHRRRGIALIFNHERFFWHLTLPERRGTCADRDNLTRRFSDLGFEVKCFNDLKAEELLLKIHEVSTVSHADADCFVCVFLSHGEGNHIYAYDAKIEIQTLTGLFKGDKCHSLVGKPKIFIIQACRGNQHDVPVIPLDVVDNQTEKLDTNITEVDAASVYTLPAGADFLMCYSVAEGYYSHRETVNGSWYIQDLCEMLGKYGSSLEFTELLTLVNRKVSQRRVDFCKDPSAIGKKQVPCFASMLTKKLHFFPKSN
# [10] = molecular target: T3, Apoptotic protease-activating factor 1 (Homo sapiens, UniProt O14727); assay type: functional
# T3 sequence (O14727 whole entry): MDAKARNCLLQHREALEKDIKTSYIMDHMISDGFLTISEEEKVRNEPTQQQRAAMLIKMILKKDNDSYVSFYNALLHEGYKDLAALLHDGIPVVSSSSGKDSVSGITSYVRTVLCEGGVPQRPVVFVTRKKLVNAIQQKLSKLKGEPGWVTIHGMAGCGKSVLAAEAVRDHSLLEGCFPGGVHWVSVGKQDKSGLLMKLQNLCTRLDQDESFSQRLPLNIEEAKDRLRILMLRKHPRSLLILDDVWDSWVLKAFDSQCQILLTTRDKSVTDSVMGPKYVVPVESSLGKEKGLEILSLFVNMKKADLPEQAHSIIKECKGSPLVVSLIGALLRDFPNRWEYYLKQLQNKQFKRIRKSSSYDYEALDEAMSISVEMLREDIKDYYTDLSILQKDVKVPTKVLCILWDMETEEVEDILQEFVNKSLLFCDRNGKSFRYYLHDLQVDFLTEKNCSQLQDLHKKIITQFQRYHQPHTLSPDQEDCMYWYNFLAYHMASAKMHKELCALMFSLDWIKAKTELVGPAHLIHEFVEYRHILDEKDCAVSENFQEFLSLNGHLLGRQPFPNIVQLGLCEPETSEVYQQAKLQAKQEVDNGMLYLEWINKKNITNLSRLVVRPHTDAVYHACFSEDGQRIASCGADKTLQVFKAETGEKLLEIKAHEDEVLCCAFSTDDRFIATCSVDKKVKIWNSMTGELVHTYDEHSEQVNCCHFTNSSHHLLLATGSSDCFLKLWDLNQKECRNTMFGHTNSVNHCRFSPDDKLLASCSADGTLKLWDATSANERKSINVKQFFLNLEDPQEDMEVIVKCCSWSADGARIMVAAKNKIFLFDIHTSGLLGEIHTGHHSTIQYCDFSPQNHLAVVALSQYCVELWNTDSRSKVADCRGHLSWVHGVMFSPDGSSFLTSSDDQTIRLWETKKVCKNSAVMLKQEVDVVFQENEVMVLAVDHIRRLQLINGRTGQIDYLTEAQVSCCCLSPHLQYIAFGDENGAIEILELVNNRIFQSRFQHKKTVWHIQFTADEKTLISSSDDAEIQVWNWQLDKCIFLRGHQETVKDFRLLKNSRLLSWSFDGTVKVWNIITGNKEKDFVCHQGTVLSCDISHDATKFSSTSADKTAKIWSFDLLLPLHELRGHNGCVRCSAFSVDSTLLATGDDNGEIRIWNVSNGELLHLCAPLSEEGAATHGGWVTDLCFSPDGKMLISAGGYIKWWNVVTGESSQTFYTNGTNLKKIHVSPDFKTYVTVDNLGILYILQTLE
# [11] = MC4R antagonists, dose response, counter-screen for LGR2 antagonist project, cell-based, plate reader, cherry pick (AID 743444); assay type: functional;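 also: transfected HEK 293 cells stimulated with alpha-MSH peptide; potency of inhibitors of the alpha-MSH evoked signal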
# [12] = A549 cell cytotoxicity, dose response, cytotoxicity control, plate reader, cherry-pick, antagonist series (AID 743412); assay type: functional, cell-based
# Caspase-9 = Caspase-9 (Homo sapiens, UniProt P55211); test: caspase-9 enzyme inhibition, dose response, selectivity assay for caspase-6 inhibitor project, biochemical, fluorescence, plate reader, cherry-picked samples (AID 743293)
# Chain of Caspase-9 (P55211 1-315 limits assumed): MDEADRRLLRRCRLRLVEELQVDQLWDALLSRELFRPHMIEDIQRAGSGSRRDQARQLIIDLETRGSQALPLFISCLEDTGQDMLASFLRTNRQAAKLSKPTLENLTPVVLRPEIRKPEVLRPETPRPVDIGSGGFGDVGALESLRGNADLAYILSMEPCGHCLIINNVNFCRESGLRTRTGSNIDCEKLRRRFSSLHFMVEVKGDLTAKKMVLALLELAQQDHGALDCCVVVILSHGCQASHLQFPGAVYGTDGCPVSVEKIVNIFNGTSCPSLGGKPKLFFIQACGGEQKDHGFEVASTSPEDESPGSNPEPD
# Chain of Caspase-9 (P55211 331-416 limits assumed): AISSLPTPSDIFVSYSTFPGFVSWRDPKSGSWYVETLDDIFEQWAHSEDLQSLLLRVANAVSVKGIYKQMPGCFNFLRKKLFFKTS
# Caspase-8 = Caspase-8 (Homo sapiens, UniProt Q14790); test: caspase-8 inhibition counter-screen, dose response, selectivity assay for caspase-6 inhibitor project, biochemical, Z-IETD-R110 fluorescence, cherry-picked samples (AID 743294)
# Chain of Caspase-8 (Q14790 217-374 limits assumed): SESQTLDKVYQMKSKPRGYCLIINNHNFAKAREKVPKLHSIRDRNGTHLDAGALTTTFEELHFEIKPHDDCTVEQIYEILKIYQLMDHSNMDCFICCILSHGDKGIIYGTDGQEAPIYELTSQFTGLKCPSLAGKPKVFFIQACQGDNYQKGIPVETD
# Chain of Caspase-8 (Q14790 385-479 limits assumed): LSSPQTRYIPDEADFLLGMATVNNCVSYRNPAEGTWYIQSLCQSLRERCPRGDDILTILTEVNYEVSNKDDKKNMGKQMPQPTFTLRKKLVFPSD
# Caspase-7 = Caspase-7 (Homo sapiens, UniProt P55210); test: human caspase-7 inhibitors, dose response, selectivity assay for caspase-6 inhibitor project, biochemical, DEVD-R110 fluorescence, cherry-pick (AID 743295)
# Chain of Caspase-7 (P55210 24-198 limits assumed): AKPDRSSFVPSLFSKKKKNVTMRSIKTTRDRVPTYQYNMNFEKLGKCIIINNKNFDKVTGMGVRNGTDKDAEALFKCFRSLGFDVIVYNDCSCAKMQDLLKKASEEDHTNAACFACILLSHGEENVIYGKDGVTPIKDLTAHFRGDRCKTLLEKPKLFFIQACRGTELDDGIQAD
# Chain of Caspase-7 (P55210 207-303 limits assumed): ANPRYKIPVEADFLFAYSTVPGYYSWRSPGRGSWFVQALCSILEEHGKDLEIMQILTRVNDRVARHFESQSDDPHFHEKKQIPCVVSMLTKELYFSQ
# A549 = test: A549 cell toxicity, dose response, cytotoxicity control, plate reader, cherry-pick samples (AID 687028); assay type: functional, cell-based; details: Homo sapiens
structure (smiles),measurement,setting,value
Cc1onc(-c2ccccc2Cl)c1C(=O)N(C)C1CCCCC1,AC50,[1],2.74 µM (active)
same,AC50,[2],3.59 µM (active)
same,AC50,[3],11.2 µM (active)
COc1cccc(S(=O)(=O)Nc2ccc3c(c2)OC[C@H](C)NC[C@@H](C)[C@H](OC)CN(C)C3=O)c1,AC50,HeLa,> 52 µM (inactive)
COc1cccc(-n2c(CN3CCNCC3)nc3ccc([N+](=O)[O-])cc3c2=O)c1,IC50,[4],10.4 µM (active)
same,IC50,[5],10.4 µM (active)
O=C(/C=C/c1ccco1)Nc1cccnc1Cl,AC50,[6],> 52 µM (inactive)
CCCCN1C=C(C(=O)OC)C(c2ccccc2Cl)C(C(=O)OC)=C1,AC50,cells,2.12 µM (active)
CN(C)CCCNc1cc(O)c2ncccc2c1,AC50,[7],1.15 µM (active)
same,AC50,[8],32 µM (active)
same,IC50,Nonstructural protein 1,4.57 µM (active)
same,AC50,[9],7.93 µM (active)
same,AC50,Caspase-6,3.64 µM (active)
same,IC50,[10],15.8 µM (active)
same,AC50,[11],25.3 µM (active)
same,AC50,[12],8.67 µM (active)
same,AC50,Caspase-9,> 70 µM (inactive)
same,AC50,Caspase-8,42 µM (active)
same,AC50,Caspase-7,7.56 µM (active)
same,AC50,A549,20.2 µM (active)
